Reference: ChEMBL document CHEMBL3414527, “Engineering potent and selective analogues of GpTx-1, a tarantula venom peptide antagonist of the Na(V)1.7 sodium channel” (J Med Chem, 2015)
pIC50: −log10 of the molar value. Bridge positions count the residues as written; N and C are the ends. Peptide text beside a SMILES is read from it.

Tests used:
[1] = biological target: Sodium channel protein type 9 subunit alpha (Homo sapiens, UniProt Q15858); experiment: Inhibition of human NaV1.7 at -140 mV holding potential by whole-cell patch clamp assay
Sequence of Sodium channel protein type 9 subunit alpha (Q15858 whole entry): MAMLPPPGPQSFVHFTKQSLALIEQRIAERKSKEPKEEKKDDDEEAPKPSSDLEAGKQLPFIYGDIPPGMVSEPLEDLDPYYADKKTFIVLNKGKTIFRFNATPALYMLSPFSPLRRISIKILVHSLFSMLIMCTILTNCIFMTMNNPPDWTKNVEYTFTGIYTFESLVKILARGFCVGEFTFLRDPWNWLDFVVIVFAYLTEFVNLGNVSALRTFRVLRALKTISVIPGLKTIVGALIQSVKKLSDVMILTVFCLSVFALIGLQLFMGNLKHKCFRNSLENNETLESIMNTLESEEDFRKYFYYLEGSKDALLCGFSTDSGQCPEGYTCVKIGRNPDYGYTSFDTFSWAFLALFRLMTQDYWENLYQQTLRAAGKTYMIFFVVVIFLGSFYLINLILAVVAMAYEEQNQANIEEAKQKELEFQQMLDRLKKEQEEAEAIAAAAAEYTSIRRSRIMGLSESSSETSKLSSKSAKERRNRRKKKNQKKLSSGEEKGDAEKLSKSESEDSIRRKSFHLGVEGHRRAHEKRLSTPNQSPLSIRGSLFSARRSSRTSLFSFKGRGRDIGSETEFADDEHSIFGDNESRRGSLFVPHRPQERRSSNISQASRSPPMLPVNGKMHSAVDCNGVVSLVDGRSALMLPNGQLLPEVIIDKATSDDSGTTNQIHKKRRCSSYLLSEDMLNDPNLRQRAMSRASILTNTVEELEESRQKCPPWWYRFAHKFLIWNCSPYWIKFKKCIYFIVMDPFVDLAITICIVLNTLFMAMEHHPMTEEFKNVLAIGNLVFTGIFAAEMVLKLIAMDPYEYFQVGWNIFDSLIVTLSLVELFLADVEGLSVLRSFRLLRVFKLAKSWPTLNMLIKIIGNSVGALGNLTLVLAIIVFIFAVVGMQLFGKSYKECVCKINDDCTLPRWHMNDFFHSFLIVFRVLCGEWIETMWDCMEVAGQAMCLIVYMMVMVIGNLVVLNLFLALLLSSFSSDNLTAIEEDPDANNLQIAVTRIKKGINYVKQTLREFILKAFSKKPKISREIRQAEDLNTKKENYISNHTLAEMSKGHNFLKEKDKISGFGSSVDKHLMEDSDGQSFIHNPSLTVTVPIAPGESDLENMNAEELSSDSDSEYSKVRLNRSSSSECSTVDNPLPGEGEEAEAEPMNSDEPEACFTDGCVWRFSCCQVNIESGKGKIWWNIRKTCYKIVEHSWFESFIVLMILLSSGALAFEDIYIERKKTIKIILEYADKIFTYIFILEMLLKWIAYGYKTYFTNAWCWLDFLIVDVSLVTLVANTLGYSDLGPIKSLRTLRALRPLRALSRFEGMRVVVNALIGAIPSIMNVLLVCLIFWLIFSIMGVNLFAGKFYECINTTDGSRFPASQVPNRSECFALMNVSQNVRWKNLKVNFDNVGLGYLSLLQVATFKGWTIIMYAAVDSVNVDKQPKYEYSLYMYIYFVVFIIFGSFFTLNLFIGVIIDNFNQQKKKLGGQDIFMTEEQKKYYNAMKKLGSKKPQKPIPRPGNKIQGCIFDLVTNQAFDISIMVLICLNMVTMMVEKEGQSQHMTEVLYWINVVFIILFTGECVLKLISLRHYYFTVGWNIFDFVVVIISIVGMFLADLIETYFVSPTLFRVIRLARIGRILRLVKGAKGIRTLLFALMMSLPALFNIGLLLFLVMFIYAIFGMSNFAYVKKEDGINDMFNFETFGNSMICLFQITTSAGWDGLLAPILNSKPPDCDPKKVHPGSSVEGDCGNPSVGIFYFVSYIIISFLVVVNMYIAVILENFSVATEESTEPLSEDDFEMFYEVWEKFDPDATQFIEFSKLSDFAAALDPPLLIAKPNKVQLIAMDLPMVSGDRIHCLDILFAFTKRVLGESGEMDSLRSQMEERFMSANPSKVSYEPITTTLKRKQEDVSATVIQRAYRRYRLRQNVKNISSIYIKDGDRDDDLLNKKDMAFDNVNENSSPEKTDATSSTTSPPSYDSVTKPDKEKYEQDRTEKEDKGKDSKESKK

[2] = biological target: Sodium channel protein type 5 subunit alpha (Homo sapiens, UniProt Q14524); experiment: Inhibition of human NaV1.5 at -140 mV holding potential by whole-cell patch clamp assay
Sequence of Sodium channel protein type 5 subunit alpha (Q14524 whole entry): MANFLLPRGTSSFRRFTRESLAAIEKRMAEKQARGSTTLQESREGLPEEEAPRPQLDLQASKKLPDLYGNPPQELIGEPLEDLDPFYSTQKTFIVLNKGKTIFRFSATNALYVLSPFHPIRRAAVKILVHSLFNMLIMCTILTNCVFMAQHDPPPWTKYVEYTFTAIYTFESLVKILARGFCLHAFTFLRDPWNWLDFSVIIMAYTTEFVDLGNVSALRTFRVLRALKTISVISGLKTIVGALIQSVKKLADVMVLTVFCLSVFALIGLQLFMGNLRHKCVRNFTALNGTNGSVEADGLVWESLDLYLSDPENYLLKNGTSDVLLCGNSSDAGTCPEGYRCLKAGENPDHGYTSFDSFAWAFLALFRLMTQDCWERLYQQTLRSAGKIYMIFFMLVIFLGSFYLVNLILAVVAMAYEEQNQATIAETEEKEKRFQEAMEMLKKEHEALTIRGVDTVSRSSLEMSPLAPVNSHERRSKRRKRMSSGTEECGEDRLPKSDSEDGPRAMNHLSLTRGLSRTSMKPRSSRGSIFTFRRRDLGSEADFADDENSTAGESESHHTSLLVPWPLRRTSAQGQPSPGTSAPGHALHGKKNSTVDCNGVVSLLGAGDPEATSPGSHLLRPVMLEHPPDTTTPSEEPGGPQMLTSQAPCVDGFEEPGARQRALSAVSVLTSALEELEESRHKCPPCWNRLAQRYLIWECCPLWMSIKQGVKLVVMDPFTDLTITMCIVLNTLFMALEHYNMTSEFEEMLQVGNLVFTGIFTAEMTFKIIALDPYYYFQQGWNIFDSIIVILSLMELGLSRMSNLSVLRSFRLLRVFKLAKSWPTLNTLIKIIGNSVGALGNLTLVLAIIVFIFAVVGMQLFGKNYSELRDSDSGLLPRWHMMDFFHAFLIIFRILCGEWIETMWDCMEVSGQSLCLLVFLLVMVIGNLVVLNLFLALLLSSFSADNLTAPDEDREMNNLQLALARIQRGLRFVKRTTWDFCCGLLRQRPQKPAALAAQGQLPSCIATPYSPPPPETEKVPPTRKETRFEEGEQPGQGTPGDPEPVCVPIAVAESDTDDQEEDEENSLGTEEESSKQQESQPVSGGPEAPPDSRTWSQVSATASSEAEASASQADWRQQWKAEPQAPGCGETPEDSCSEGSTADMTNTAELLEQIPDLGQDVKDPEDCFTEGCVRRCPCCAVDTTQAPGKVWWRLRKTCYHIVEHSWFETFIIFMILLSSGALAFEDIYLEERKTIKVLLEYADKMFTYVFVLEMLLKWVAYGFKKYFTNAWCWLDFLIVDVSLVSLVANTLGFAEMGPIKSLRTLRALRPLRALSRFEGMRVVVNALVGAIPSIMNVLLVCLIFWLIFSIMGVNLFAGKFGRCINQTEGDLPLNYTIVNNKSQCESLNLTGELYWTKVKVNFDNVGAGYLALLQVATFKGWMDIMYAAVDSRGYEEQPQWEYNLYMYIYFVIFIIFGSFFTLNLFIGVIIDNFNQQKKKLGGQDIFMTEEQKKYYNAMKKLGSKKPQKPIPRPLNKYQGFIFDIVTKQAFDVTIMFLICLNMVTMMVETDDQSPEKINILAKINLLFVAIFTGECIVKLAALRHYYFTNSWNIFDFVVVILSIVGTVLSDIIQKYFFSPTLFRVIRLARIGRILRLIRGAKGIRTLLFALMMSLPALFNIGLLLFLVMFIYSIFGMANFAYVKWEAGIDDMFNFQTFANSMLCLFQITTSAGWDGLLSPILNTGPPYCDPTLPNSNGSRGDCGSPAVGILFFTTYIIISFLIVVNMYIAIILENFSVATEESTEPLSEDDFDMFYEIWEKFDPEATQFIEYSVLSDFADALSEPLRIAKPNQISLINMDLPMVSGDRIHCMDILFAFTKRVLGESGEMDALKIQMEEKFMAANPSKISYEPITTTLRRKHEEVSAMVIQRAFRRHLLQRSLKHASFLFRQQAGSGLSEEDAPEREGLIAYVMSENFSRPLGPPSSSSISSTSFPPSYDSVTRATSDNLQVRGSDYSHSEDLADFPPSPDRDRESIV

CC[C@H](C)[C@@H]1NC(=O)[C@@H]2CSSC[C@@H]3NC(=O)[C@H](C(C)C)NC(=O)[C@H](CC(C)C)NC(=O)[C@H](CC(N)=O)NC(=O)[C@@H]4CCCN4C(=O)[C@H](CCCNC(=N)N)NC(=O)[C@H](CSSC[C@H](NC(=O)[C@@H](N)CC(=O)O)C(=O)N[C@@H](CC(C)C)C(=O)NCC(=O)N[C@@H](Cc4ccccc4)C(=O)N[C@@H](CC4CCCCC4)C(=O)N[C@@H](CCCNC(=N)N)C(=O)N[C@@H](CCCCN)C(=O)N2)NC(=O)[C@H](CSSC[C@@H](C(=O)N[C@@H](CCCCN)C(=O)N[C@@H](Cc2ccc(O)cc2)C(=O)N[C@H](C(=O)N[C@@H](Cc2ccccc2)C(N)=O)C(C)C)NC(=O)[C@H](Cc2c[nH]c4ccccc24)NC(=O)[C@H](CCCCN)NC(=O)[C@H](Cc2cnc[nH]2)NC(=O)[C@H]([C@@H](C)O)NC(=O)[C@H](CCCNC(=N)N)NC(=O)[C@H](CO)NC3=O)NC(=O)[C@H](CCCCN)NC(=O)[C@H](CC(=O)O)NC(=O)[C@H](CC(N)=O)NC(=O)[C@H](CC(=O)O)NC(=O)[C@@H]2CCCN2C1=O
pIC50 [1]: 8.40
pIC50 [2]: 5.55

CC[C@H](C)[C@@H]1NC(=O)[C@@H]2CSSC[C@@H]3NC(=O)[C@H](C(C)C)NC(=O)[C@H](CC(C)C)NC(=O)[C@H](CC(N)=O)NC(=O)[C@@H]4CCCN4C(=O)[C@H](CCCNC(=N)N)NC(=O)[C@H](CSSC[C@H](NC(=O)[C@@H](N)CC(=O)O)C(=O)N[C@@H](CC(C)C)C(=O)NCC(=O)N[C@@H](Cc4ccccc4)C(=O)N[C@@H](CCSC)C(=O)N[C@@H](CCCNC(=N)N)C(=O)N[C@@H](C)C(=O)N2)NC(=O)[C@H](CSSC[C@@H](C(=O)N[C@@H](CCCCN)C(=O)N[C@@H](Cc2ccc(O)cc2)C(=O)N[C@H](C(=O)N[C@@H](Cc2ccccc2)C(N)=O)C(C)C)NC(=O)[C@H](Cc2c[nH]c4ccccc24)NC(=O)[C@H](CCCCN)NC(=O)[C@H](Cc2cnc[nH]2)NC(=O)[C@H]([C@@H](C)O)NC(=O)[C@H](CCCNC(=N)N)NC(=O)[C@H](CO)NC3=O)NC(=O)[C@H](CCCCN)NC(=O)[C@H](CC(=O)O)NC(=O)[C@H](CC(N)=O)NC(=O)[C@H](CC(=O)O)NC(=O)[C@@H]2CCCN2C1=O (H-DCLGFMRACIPDNDKCCRPNLVCSRTHKWCKYVF-NH2; disulfide 2-17, 9-23, 16-30)
pIC50 [1]: 6.30
pIC50 [2]: < 5.30

CC[C@H](C)[C@@H]1NC(=O)[C@@H]2CSSC[C@@H]3NC(=O)[C@H](C(C)C)NC(=O)[C@H](CC(C)C)NC(=O)[C@H](CC(N)=O)NC(=O)[C@@H]4CCCN4C(=O)[C@H](CCCNC(=N)N)NC(=O)[C@H](CSSC[C@H](NC(=O)[C@@H](N)CC(=O)O)C(=O)N[C@@H](CC(C)C)C(=O)NCC(=O)N[C@@H](Cc4ccccc4)C(=O)N[C@@H](CCSC)C(=O)N[C@@H](CCCNC(=N)N)C(=O)N[C@@H](CCCCN)C(=O)N2)NC(=O)[C@H](CSSC[C@@H](C(=O)N[C@@H](CCCCN)C(=O)N[C@@H](Cc2ccc(O)cc2)C(=O)N[C@H](C(=O)N[C@@H](Cc2ccccc2)C(N)=O)C(C)C)NC(=O)[C@H](Cc2c[nH]c4ccccc24)NC(=O)[C@H](CCCNC(=N)N)NC(=O)[C@H](Cc2cnc[nH]2)NC(=O)[C@H]([C@@H](C)O)NC(=O)[C@H](CCCNC(=N)N)NC(=O)[C@H](CO)NC3=O)NC(=O)[C@H](CCCCN)NC(=O)[C@H](CC(=O)O)NC(=O)[C@H](CC(N)=O)NC(=O)[C@H](CC(=O)O)NC(=O)[C@@H]2CCCN2C1=O
pIC50 [1]: 8.10

CC[C@H](C)[C@@H]1NC(=O)[C@@H]2CSSC[C@@H]3NC(=O)[C@H](C(C)C)NC(=O)[C@H](CC(C)C)NC(=O)[C@H](CC(N)=O)NC(=O)[C@@H]4CCCN4C(=O)[C@H](CCCNC(=N)N)NC(=O)[C@H](CSSC[C@H](NC(=O)[C@@H](N)CC(=O)O)C(=O)N[C@@H](CC(C)C)C(=O)NCC(=O)N[C@@H](Cc4ccccc4)C(=O)N[C@@H](Cc4c[nH]c5ccccc45)C(=O)N[C@@H](CCCNC(=N)N)C(=O)N[C@@H](CCCCN)C(=O)N2)NC(=O)[C@H](CSSC[C@@H](C(=O)N[C@@H](CCCCN)C(=O)N[C@@H](Cc2ccc(O)cc2)C(=O)N[C@H](C(=O)N[C@@H](Cc2ccccc2)C(N)=O)C(C)C)NC(=O)[C@H](Cc2c[nH]c4ccccc24)NC(=O)[C@H](CCCCN)NC(=O)[C@H](Cc2cnc[nH]2)NC(=O)[C@H]([C@@H](C)O)NC(=O)[C@H](CCCNC(=N)N)NC(=O)[C@H](CO)NC3=O)NC(=O)[C@H](CCCCN)NC(=O)[C@H](CC(=O)O)NC(=O)[C@H](CC(N)=O)NC(=O)[C@H](CC(=O)O)NC(=O)[C@@H]2CCCN2C1=O (H-DCLGFWRKCIPDNDKCCRPNLVCSRTHKWCKYVF-NH2; disulfide 2-17, 9-23, 16-30)
pIC50 [1]: 7.64
pIC50 [2]: 5.47

CC[C@H](C)[C@@H]1NC(=O)[C@@H]2CSSC[C@@H]3NC(=O)[C@H](C(C)C)NC(=O)[C@H](CC(C)C)NC(=O)[C@H](CC(N)=O)NC(=O)[C@@H]4CCCN4C(=O)[C@H](CCCNC(=N)N)NC(=O)[C@H](CSSC[C@H](NC(=O)[C@@H](N)CC(=O)O)C(=O)N[C@@H](CC(C)C)C(=O)NCC(=O)N(C)[C@@H](CC(C)C)C(=O)N[C@@H](CCSC)C(=O)N[C@@H](CCCNC(=N)N)C(=O)N[C@@H](CCCCN)C(=O)N2)NC(=O)[C@H](CSSC[C@@H](C(=O)N[C@@H](CCCCN)C(=O)N[C@@H](Cc2ccc(O)cc2)C(=O)N[C@H](C(=O)N[C@@H](Cc2ccccc2)C(N)=O)C(C)C)NC(=O)[C@H](Cc2c[nH]c4ccccc24)NC(=O)[C@H](CCCCN)NC(=O)[C@H](Cc2cnc[nH]2)NC(=O)[C@H]([C@@H](C)O)NC(=O)[C@H](CCCNC(=N)N)NC(=O)[C@H](CO)NC3=O)NC(=O)[C@H](CCCCN)NC(=O)[C@H](CC(=O)O)NC(=O)[C@H](CC(N)=O)NC(=O)[C@H](CC(=O)O)NC(=O)[C@@H]2CCCN2C1=O
pIC50 [1]: 7.60
pIC50 [2]: < 5.00

CC[C@H](C)[C@@H]1NC(=O)[C@@H]2CSSC[C@@H]3NC(=O)[C@H](C(C)C)NC(=O)[C@H](CC(C)C)NC(=O)[C@H](CC(N)=O)NC(=O)[C@@H]4CCCN4C(=O)[C@H](CCCNC(=N)N)NC(=O)[C@H](CSSC[C@H](NC(=O)[C@@H](N)CC(=O)O)C(=O)N[C@@H](CC(C)C)C(=O)NCC(=O)N[C@@H](C)C(=O)N[C@@H](CCSC)C(=O)N[C@@H](CCCNC(=N)N)C(=O)N[C@@H](CCCCN)C(=O)N2)NC(=O)[C@H](CSSC[C@@H](C(=O)N[C@@H](CCCCN)C(=O)N[C@@H](Cc2ccc(O)cc2)C(=O)N[C@H](C(=O)N[C@@H](Cc2ccccc2)C(N)=O)C(C)C)NC(=O)[C@H](Cc2c[nH]c4ccccc24)NC(=O)[C@H](CCCCN)NC(=O)[C@H](Cc2cnc[nH]2)NC(=O)[C@H](CC(C)C)NC(=O)[C@H](CCCNC(=N)N)NC(=O)[C@H](CO)NC3=O)NC(=O)[C@H](CCCCN)NC(=O)[C@H](CC(=O)O)NC(=O)[C@H](CC(N)=O)NC(=O)[C@H](CC(=O)O)NC(=O)[C@@H]2CCCN2C1=O (H-DCLGAMRKCIPDNDKCCRPNLVCSRLHKWCKYVF-NH2; disulfide 2-17, 9-23, 16-30)
pIC50 [1]: 7.27
pIC50 [2]: < 5.00

CC[C@H](C)[C@@H]1NC(=O)[C@@H]2CSSC[C@@H]3NC(=O)[C@H](C(C)C)NC(=O)[C@H](CC(C)C)NC(=O)[C@H](CC(N)=O)NC(=O)[C@@H]4CCCN4C(=O)[C@H](CCCNC(=N)N)NC(=O)[C@H](CSSC[C@H](NC(=O)[C@@H](N)CC(=O)O)C(=O)N[C@@H](CC(C)C)C(=O)NCC(=O)N[C@@H](Cc4ccc(-c5ccccc5)cc4)C(=O)N[C@@H](CCSC)C(=O)N[C@@H](CCCNC(=N)N)C(=O)N[C@@H](CCCCN)C(=O)N2)NC(=O)[C@H](CSSC[C@@H](C(=O)N[C@@H](CCCCN)C(=O)N[C@@H](Cc2ccc(O)cc2)C(=O)N[C@H](C(=O)N[C@@H](Cc2ccccc2)C(N)=O)C(C)C)NC(=O)[C@H](Cc2c[nH]c4ccccc24)NC(=O)[C@H](CCCCN)NC(=O)[C@H](Cc2cnc[nH]2)NC(=O)[C@H]([C@@H](C)O)NC(=O)[C@H](CCCNC(=N)N)NC(=O)[C@H](CO)NC3=O)NC(=O)[C@H](CCCCN)NC(=O)[C@H](CC(=O)O)NC(=O)[C@H](CC(N)=O)NC(=O)[C@H](CC(=O)O)NC(=O)[C@@H]2CCCN2C1=O
pIC50 [1]: 7.07

CC[C@H](C)[C@@H]1NC(=O)[C@@H]2CSSC[C@@H]3NC(=O)[C@H](C(C)C)NC(=O)[C@H](CC(C)C)NC(=O)[C@H](CC(N)=O)NC(=O)[C@@H]4CCCN4C(=O)[C@H](CCCNC(=N)N)NC(=O)[C@H](CSSC[C@H](NC(=O)[C@@H](N)CC(=O)O)C(=O)N[C@@H](CC(C)C)C(=O)NCC(=O)N[C@@H](Cc4ccccc4)C(=O)N[C@@H](CCSC)C(=O)N[C@@H](CCCNC(=N)N)C(=O)N[C@@H](CCCCN)C(=O)N2)NC(=O)[C@H](CSSC[C@@H](C(=O)N[C@@H](CCCCN)C(=O)N[C@@H](Cc2ccc(O)cc2)C(=O)N[C@H](C(=O)N[C@@H](Cc2ccccc2)C(N)=O)C(C)C)NC(=O)[C@H](Cc2c[nH]c4ccccc24)NC(=O)[C@H](CCCCN)NC(=O)[C@H](Cc2cnc[nH]2)NC(=O)[C@H](Cc2cnc[nH]2)NC(=O)[C@H](CCCNC(=N)N)NC(=O)[C@H](CO)NC3=O)NC(=O)[C@H](CCCCN)NC(=O)[C@H](CC(=O)O)NC(=O)[C@H](CC(N)=O)NC(=O)[C@H](CC(=O)O)NC(=O)[C@@H]2CCCN2C1=O (H-DCLGFMRKCIPDNDKCCRPNLVCSRHHKWCKYVF-NH2; disulfide 2-17, 9-23, 16-30)
pIC50 [1]: 8.40
